This is an account of results in PubChem BioAssay AID330 (DTP/NCI, 2004).

This test relates to P388 leukemia ip, CD2F1 mice, survival T/C. Briefly: NCI In Vivo Anticancer Drug Screen. Data for tumor model P388 Leukemia (intraperitoneal) in CD2F1 (CDF1) mice. The following applies: endpoint: median survival time, higher = longer survival. In short, it runs like this:
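Mice carrying the transplanted tumor received test compound or vehicle. Survival was recorded in each group, and the value is the treated-group measurement divided by that of the vehicle-treated control group.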

The mark [1] stands for this setting: dose: 12.5 mg/kg/injection, schedule: Q01DX009 (ip), vehicle: saline with Tween-80.
[2] abbreviates: dose: 25.0 mg/kg/injection, schedule: Q01DX009 (ip), vehicle: saline with Tween-80.
Where [3] appears, read: dose: 100.0 mg/kg/injection, schedule: Q01DX009 (ip), vehicle: saline with Tween-80.
Where [4] appears, read: dose: 200.0 mg/kg/injection, schedule: Q01DX009 (ip), vehicle: saline with Tween-80.
Where [5] appears, read: dose: 50.0 mg/kg/injection, schedule: Q01DX009 (ip), vehicle: saline with Tween-80.
The mark [6] stands for this setting: dose: 100.0 mg/kg/injection, schedule: Q01DX001 (ip), vehicle: Klucel (hydroxypropylcellulose) (HPC).
Setting [7] is: dose: 200.0 mg/kg/injection, schedule: Q01DX001 (ip), vehicle: Klucel (hydroxypropylcellulose) (HPC).
Setting [8] is: dose: 100.0 mg/kg/injection, schedule: Q01DX001 (ip), vehicle: saline with Tween-80.
Setting [9] is: dose: 200.0 mg/kg/injection, schedule: Q01DX001 (ip), vehicle: saline with Tween-80.
Where [10] appears, read: dose: 15.0 mg/kg/injection, schedule: Q01DX005 (ip), vehicle: saline with Tween-80.
Where [11] appears, read: dose: 30.0 mg/kg/injection, schedule: Q01DX005 (ip), vehicle: saline with Tween-80.
[12] abbreviates: dose: 60.0 mg/kg/injection, schedule: Q01DX005 (ip), vehicle: saline with Tween-80.

Several values for one entry are separate records, joined by “and”; a condition that tells them apart may be missing. Equal entries are not always repeated. Toxic doses and inconclusive results are not listed.

Take `NC(=S)Oc1ccccc1`: the T/C reads like this: (dose: 6.25 mg/kg/injection, schedule: Q01DX009 (ip), vehicle: saline with Tween-80) 103 % of control; under setting [1], 100 % of control; under setting [2], 106 % of control; under setting [3], 93 % of control; under setting [4], 93 % of control.
Consider `N#Cc1c(N)nc2c(c1N)CCO2`, for which the T/C by setting is: under setting [5], 93 % of control; under setting [3], 96 % of control; under setting [4], 99 % of control.
As for `CC1C(=O)C(C)C(c2ccc(Cl)cc2)OC1c1ccccc1` (stereo not given), the T/C (dose: 50.0 mg/kg/injection, schedule: Q01DX001 (ip), vehicle: Klucel (hydroxypropylcellulose) (HPC)) is 94 % of control; the T/C under setting [6] is 95 % of control; the T/C under setting [7] is 105 % of control.
As to `C=C(COC(C)=O)[C@H](C)C(=O)C1OCOC(C2CC(=O)NC(=O)C2)[C@@H]1OC(C)=O` (stereo not given in full), the T/C (dose: 0.01 mg/kg/injection, schedule: Q01DX009 (ip), vehicle: distilled water + alcohol) is 102 % of control; the T/C (dose: 0.03 mg/kg/injection, schedule: Q01DX009 (ip), vehicle: distilled water + alcohol) was 102 % of control; the T/C (dose: 0.06 mg/kg/injection, schedule: Q01DX009 (ip), vehicle: distilled water + alcohol) was 102 % of control; the T/C (dose: 0.12 mg/kg/injection, schedule: Q01DX009 (ip), vehicle: distilled water + alcohol) was 109 % of control.
Turning to `O=C1OCCOCCSCCOCCOC(=O)c2cncc1c2`, the T/C runs as follows: under setting [6], 104 % of control; under setting [7], 104 % of control; (dose: 400.0 mg/kg/injection, schedule: Q01DX001 (ip), vehicle: Klucel (hydroxypropylcellulose) (HPC)) 101 % of control.
For the compound `CC1(C)CCO/C(=C\C(=O)N2Cc3cc4ccccc4nc3C2)N1`, the T/C runs as follows: (dose: 18.75 mg/kg/injection, schedule: Q01DX001 (ip), vehicle: saline sonified) 95 % of control; (dose: 37.5 mg/kg/injection, schedule: Q01DX001 (ip), vehicle: saline sonified) 95 % of control; (dose: 75.0 mg/kg/injection, schedule: Q01DX001 (ip), vehicle: saline sonified) 100 % of control.
Consider `CCC1=C[C@@H]2C[C@](C(=O)OC)(c3cc4c(cc3OC)N(C)[C@H]3[C@@](O)(C(=O)NC)[C@H](OC(C)=O)[C@]5(CC)C=CCN6CC[C@]43[C@@H]65)c3[nH]c4ccccc4c3CCN(C1)[C@@H]2O`, for which the T/C runs as follows: (dose: 0.39 mg/kg/injection, schedule: Q01DX001 (ip), vehicle: water) 123 % of control; (dose: 1.56 mg/kg/injection, schedule: Q01DX001 (ip), vehicle: water) 151 % of control; (dose: 3.13 mg/kg/injection, schedule: Q01DX001 (ip), vehicle: water) 152 % of control and 158 % of control.
Consider `COc1cc(N2C(=O)C(=O)C(C(C)=O)C2=O)c(OC)cc1Cl` (stereo not given), for which the T/C reads like this: (dose: 50.0 mg/kg/injection, schedule: Q01DX009 (ip), vehicle: Klucel (hydroxypropylcellulose) (HPC)) 100 % of control; (dose: 100.0 mg/kg/injection, schedule: Q01DX009 (ip), vehicle: Klucel (hydroxypropylcellulose) (HPC)) 99 % of control; (dose: 200.0 mg/kg/injection, schedule: Q01DX009 (ip), vehicle: Klucel (hydroxypropylcellulose) (HPC)) 100 % of control.
For the compound `COC1C(O)C(CO)OC1n1ccc(NC(=O)c2ccccc2)nc1=O` (stereo not given), the T/C reads like this: (dose: 60.0 mg/kg/injection, schedule: Q01DX005 (ip), vehicle: Klucel (hydroxypropylcellulose) (HPC)) 98 % of control and 93 % of control; (dose: 120.0 mg/kg/injection, schedule: Q01DX005 (ip), vehicle: Klucel (hydroxypropylcellulose) (HPC)) 94 % of control; (dose: 240.0 mg/kg/injection, schedule: Q01DX005 (ip), vehicle: Klucel (hydroxypropylcellulose) (HPC)) 91 % of control and 93 % of control.
In the case of `C/C(=N\NC(=S)N1CCC(N2CCCCC2)CC1)c1ccccn1`, the T/C was 112 % of control (dose: 6.25 mg/kg/injection, schedule: Q01DX005 (ip), vehicle: saline with Tween-80) and 113 % of control (dose: 12.5 mg/kg/injection, schedule: Q01DX005 (ip), vehicle: saline with Tween-80).
Regarding `COc1ccc(CC(=O)c2ccc3c(c2O)C=CC(C)(C)O3)cc1OC`, the T/C was 98 % of control (dose: 50.0 mg/kg/injection, schedule: Q01DX005 (ip), vehicle: saline with Tween-80); 99 % of control (dose: 100.0 mg/kg/injection, schedule: Q01DX005 (ip), vehicle: saline with Tween-80); 89 % of control (dose: 200.0 mg/kg/injection, schedule: Q01DX005 (ip), vehicle: saline with Tween-80).
With `N#Cc1ccccc1S(=O)(=O)O`, the T/C was 96 % of control under setting [8]; 90 % of control under setting [9]; 102 % of control (dose: 400.0 mg/kg/injection, schedule: Q01DX001 (ip), vehicle: saline with Tween-80).
As for `CCn1c(COc2c(I)cc(I)c3cccnc23)n[nH]c1=S`, the T/C is 96 % of control (dose: 6.25 mg/kg/injection, schedule: Q01DX005 (ip), vehicle: Klucel (hydroxypropylcellulose) (HPC)); 98 % of control (dose: 12.5 mg/kg/injection, schedule: Q01DX005 (ip), vehicle: Klucel (hydroxypropylcellulose) (HPC)); 102 % of control (dose: 25.0 mg/kg/injection, schedule: Q01DX005 (ip), vehicle: Klucel (hydroxypropylcellulose) (HPC)); 98 % of control (dose: 50.0 mg/kg/injection, schedule: Q01DX005 (ip), vehicle: Klucel (hydroxypropylcellulose) (HPC)).
In the case of `CC(C)N1CCOCC1`, the T/C is 110 % of control (dose: 25.0 mg/kg/injection, schedule: Q01DX009 (ip), vehicle: saline); 105 % of control and 100 % of control (dose: 50.0 mg/kg/injection, schedule: Q01DX009 (ip), vehicle: saline); 105 % of control and 113 % of control (dose: 100.0 mg/kg/injection, schedule: Q01DX009 (ip), vehicle: saline).
Regarding `CCOC(=O)c1[nH]cnc1N`, the T/C is, setting by setting: under setting [10], 104 % of control; under setting [11], 101 % of control; under setting [12], 104 % of control and 106 % of control; (dose: 120.0 mg/kg/injection, schedule: Q01DX005 (ip), vehicle: saline with Tween-80) 100 % of control; (dose: 240.0 mg/kg/injection, schedule: Q01DX005 (ip), vehicle: saline with Tween-80) 104 % of control.
Regarding `COC(=O)CCCNC(C)C`, the T/C by setting is: (dose: 25.0 mg/kg/injection, schedule: Q01DX009 (ip), vehicle: water) 97 % of control; (dose: 50.0 mg/kg/injection, schedule: Q01DX009 (ip), vehicle: water) 100 % of control; (dose: 100.0 mg/kg/injection, schedule: Q01DX009 (ip), vehicle: water) 98 % of control; (dose: 200.0 mg/kg/injection, schedule: Q01DX009 (ip), vehicle: water) 99 % of control; (dose: 400.0 mg/kg/injection, schedule: Q01DX009 (ip), vehicle: water) 99 % of control.
As for `CC1=C(Cl)C(=N\S(=O)(=O)c2ccccc2)/c2ccccc2/C1=N/S(=O)(=O)c1ccccc1`, the T/C by setting is: under setting [8], 95 % of control; under setting [9], 95 % of control.
For `Cc1c(C)c2ccc(OCCCN3CCN(Cc4ccc(Cl)cc4)CC3)cc2oc1=O`, the T/C is 88 % of control (dose: 50.0 mg/kg/injection, schedule: Q01DX009 (ip), vehicle: suspension in saline) and 91 % of control (dose: 100.0 mg/kg/injection, schedule: Q01DX009 (ip), vehicle: suspension in saline).
Turning to `COc1cc(O)c2c(c1)C(=O)C1=C(C2=O)[C@@H](C)OC(C)C1` (stereo not given in full), the T/C runs as follows: under setting [10], 94 % of control; under setting [11], 96 % of control; under setting [12], 88 % of control and 94 % of control.
With `S=C(N/N=C1\CSCc2ccccc21)Nc1cc(Cl)ccc1Cl`, the T/C under setting [1] was 87 % of control, the T/C under setting [2] was 90 % of control and the T/C under setting [5] was 100 % of control.
